Assay [1] deals with Tetrahymena thermophila. Put plainly: Binding affinity to Tetrahymena thermophila telomeric 7 G-quadruplex DNA assessed as binding constant Kb2 in presence of 10 mM KCl by fluorescence spectroscopy.
Assay [2] has as its system Tetrahymena thermophila. Put plainly: Binding affinity to Tetrahymena thermophila telomeric 7 G-quadruplex DNA assessed as binding constant Kb1 in presence of 10 mM KCl by fluorescence spectroscopy.

Consider `COc1cccc2c1C(=O)c1c(O)c3c(c(O)c1C2=O)C[C@@](O)(C(C)=O)C[C@@H]3O[C@H]1C[C@H](N)[C@H](O)[C@H](C)O1`, for which the Kb is 1.3 ×10⁵ /M in the assay with Tetrahymena thermophila [1] and 6.3 ×10⁵ /M in the assay on Tetrahymena thermophila [2].

The values are drawn from ChEMBL document CHEMBL4406898, “Dual mode of binding of anti cancer drug epirubicin to G-quadruplex [d-(TTAGGGT)]4 containing human telomeric DNA sequence induces thermal stabilization” (Bioorg Med Chem, 2019).
